# Values of other authors as cited in US20040170677A1, “Method of drug loading in liposomes by gradient” (priority 2002, published 2004).
# Settings: patients receiving doses greater than 550 mg per square meter of body area
compound,measurement,value
"COc1cccc2c1C(=O)c1c(O)c3c(c(O)c1C2=O)C[C@@](O)(C(=O)CO)C[C@@H]3O[C@H]1C[C@H](N)[C@H](O)[C@H](C)O1 [doxorubicin, Doxorubicin]","irreversible cardiomyopathy leading to congestive heart failure, share of patients",1-10%
